Data on 18 compounds can be found in PubChem BioAssay AID330 (DTP/NCI, 2004).

In the assay the test system is P388 leukemia ip, CD2F1 mice, survival T/C. Put plainly: NCI In Vivo Anticancer Drug Screen. Data for tumor model P388 Leukemia (intraperitoneal) in CD2F1 (CDF1) mice. The conditions noted are these: endpoint: median survival time, higher = longer survival. The method, boiled down: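 Mice carrying the transplanted tumor received test compound or vehicle. Survival was recorded in each group, and the value is the treated-group measurement divided by that of the vehicle-treated control group.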

Setting [1] is: dose: 25.0 mg/kg/injection, schedule: Q01DX005 (ip), vehicle: Klucel (hydroxypropylcellulose) (HPC).
Setting [2] is: dose: 50.0 mg/kg/injection, schedule: Q01DX005 (ip), vehicle: Klucel (hydroxypropylcellulose) (HPC).
Setting [3] is: dose: 100.0 mg/kg/injection, schedule: Q01DX005 (ip), vehicle: Klucel (hydroxypropylcellulose) (HPC).
The mark [4] stands for this setting: dose: 200.0 mg/kg/injection, schedule: Q01DX005 (ip), vehicle: Klucel (hydroxypropylcellulose) (HPC).
Setting [5] is: dose: 12.5 mg/kg/injection, schedule: Q01DX005 (ip), vehicle: saline with Tween-80.
Where [6] appears, read: dose: 25.0 mg/kg/injection, schedule: Q01DX005 (ip), vehicle: saline with Tween-80.
The mark [7] stands for this setting: dose: 25.0 mg/kg/injection, schedule: Q01DX009 (ip), vehicle: saline with Tween-80.
Setting [8] is: dose: 50.0 mg/kg/injection, schedule: Q01DX009 (ip), vehicle: saline with Tween-80.
[9] abbreviates: dose: 100.0 mg/kg/injection, schedule: Q01DX009 (ip), vehicle: saline with Tween-80.

“And” between values parts separate entries of the source, which are not always exact repeats. Identical values can stand only once. Toxic doses and inconclusive results are not listed.

For `Cc1c2cc[n+](C)cc2c(C)c2c1[nH]c1ccc(O)cc12`, the T/C is 115 % of control (dose: 0.25 mg/kg/injection, schedule: Q04DX003 (ip), vehicle: water); 94 % of control (dose: 0.25 mg/kg/injection, schedule: Q04DX003 (iv), vehicle: water); 93 % of control (dose: 0.5 mg/kg/injection, schedule: Q04DX003 (iv), vehicle: water); 152 % of control (dose: 0.78 mg/kg/injection, schedule: Q04DX003 (ip), vehicle: saline); 151 % of control (dose: 1.0 mg/kg/injection, schedule: Q04DX003 (ip), vehicle: water); 100 % of control (dose: 1.0 mg/kg/injection, schedule: Q04DX003 (iv), vehicle: water). Further, the T/C runs as follows: (dose: 1.56 mg/kg/injection, schedule: Q04DX003 (ip), vehicle: saline) 164 % of control; (dose: 2.0 mg/kg/injection, schedule: Q04DX003 (ip), vehicle: water) 152 % of control and 161 % of control; (dose: 2.0 mg/kg/injection, schedule: Q04DX003 (iv), vehicle: water) 111 % of control; (dose: 3.12 mg/kg/injection, schedule: Q04DX003 (ip), vehicle: saline) 172 % of control; (dose: 3.6 mg/kg/injection, schedule: Q04DX002 (ip), vehicle: saline) 176 % of control; (dose: 4.0 mg/kg/injection, schedule: Q04DX003 (iv), vehicle: water) 99 % of control. The T/C is, setting by setting: (dose: 4.5 mg/kg/injection, schedule: Q04DX002 (ip), vehicle: saline) 151 % of control; (dose: 6.0 mg/kg/injection, schedule: Q04DX002 (ip), vehicle: saline) 188 % of control; (dose: 6.25 mg/kg/injection, schedule: Q04DX003 (ip), vehicle: saline) 150 % of control; (dose: 7.5 mg/kg/injection, schedule: Q04DX002 (ip), vehicle: saline) 94 % of control; (dose: 12.5 mg/kg/injection, schedule: Q04DX003 (ip), vehicle: saline) 170 % of control; (dose: 50.0 mg/kg/injection, schedule: Q04DX003 (ip), vehicle: saline) 93 % of control. For the setting “dose: 100.0 mg/kg/injection, schedule: Q04DX003 (ip), vehicle: saline”, the T/C was 94 % of control.
For `COc1cc(N)c(C)c2c(C)ccnc12`, the T/C was 106 % of control (dose: 30.0 mg/kg/injection, schedule: Q01DX005 (ip), vehicle: Klucel (hydroxypropylcellulose) (HPC)); 92 % of control and 97 % of control (dose: 60.0 mg/kg/injection, schedule: Q01DX005 (ip), vehicle: Klucel (hydroxypropylcellulose) (HPC)).
For the compound `CCOC(=O)/N=C1/CCCC(=O)C1O` (stereo not given), the T/C is 102 % of control under setting [1], 103 % of control under setting [2], 93 % of control under setting [3] and 101 % of control under setting [4].
Turning to `CN(C)c1ccc(C=NCCC[Si]23OCCN(CCO2)CCO3)cc1`, the T/C runs as follows: under setting [2], 106 % of control; under setting [3], 100 % of control; under setting [4], 111 % of control.
`Nc1c2c(=O)[nH]c(=O)c2c(N)c2c(=O)c3ccccc3c(=O)c12`: the T/C reads like this: (dose: 60.0 mg/kg/injection, schedule: Q01DX005 (ip), vehicle: saline) 103 % of control; (dose: 120.0 mg/kg/injection, schedule: Q01DX005 (ip), vehicle: saline) 104 % of control; (dose: 240.0 mg/kg/injection, schedule: Q01DX005 (ip), vehicle: saline) 105 % of control.
Consider `O=C(CCl)N1C(=O)NC(c2ccc(Cl)cc2)(c2ccc(Cl)cc2)C1=O`, for which the T/C is 105 % of control (dose: 5.0 mg/kg/injection, schedule: Q04DX003 (ip), vehicle: other); 116 % of control (dose: 10.0 mg/kg/injection, schedule: Q04DX003 (ip), vehicle: other); 108 % of control and 123 % of control (dose: 20.0 mg/kg/injection, schedule: Q04DX003 (ip), vehicle: other).
As to `Cl/C(=N\Nc1ccccc1)c1ccccc1`, the T/C is 100 % of control (dose: 3.13 mg/kg/injection, schedule: Q01DX009 (ip), vehicle: Klucel (hydroxypropylcellulose) (HPC)); 106 % of control (dose: 6.25 mg/kg/injection, schedule: Q01DX009 (ip), vehicle: Klucel (hydroxypropylcellulose) (HPC)); 109 % of control (dose: 7.5 mg/kg/injection, schedule: Q01DX001 (ip), vehicle: saline sonified); 104 % of control (dose: 12.5 mg/kg/injection, schedule: Q01DX009 (ip), vehicle: Klucel (hydroxypropylcellulose) (HPC)); 109 % of control (dose: 15.0 mg/kg/injection, schedule: Q01DX001 (ip), vehicle: saline sonified); 109 % of control (dose: 30.0 mg/kg/injection, schedule: Q01DX001 (ip), vehicle: saline sonified).
For `Cc1cc(C(C#N)c2ccc(Cl)cc2)c(Cl)cc1NC(=O)c1cc(I)cc(I)c1O` (stereo not given), the T/C runs as follows: (dose: 6.25 mg/kg/injection, schedule: Q01DX005 (ip), vehicle: saline with Tween-80) 102 % of control; under setting [5], 94 % of control; under setting [6], 88 % of control.
In the case of `CC(CCc1ccccc1)C(=O)Nc1ccccc1` (stereo not given), the T/C by setting is: (dose: 100.0 mg/kg/injection, schedule: Q04DX002 (ip), vehicle: saline with Tween-80) 99 % of control; (dose: 200.0 mg/kg/injection, schedule: Q04DX002 (ip), vehicle: saline with Tween-80) 96 % of control; (dose: 400.0 mg/kg/injection, schedule: Q04DX002 (ip), vehicle: saline with Tween-80) 95 % of control.
On to `CSCCC(NP(=S)(c1ccccc1)c1ccccc1)C(=O)O` (stereo not given), for which the T/C is, setting by setting: (dose: 50.0 mg/kg/injection, schedule: Q01DX009 (ip), vehicle: Klucel (hydroxypropylcellulose) (HPC)) 104 % of control and 107 % of control; (dose: 100.0 mg/kg/injection, schedule: Q01DX009 (ip), vehicle: Klucel (hydroxypropylcellulose) (HPC)) 107 % of control; (dose: 200.0 mg/kg/injection, schedule: Q01DX009 (ip), vehicle: Klucel (hydroxypropylcellulose) (HPC)) 101 % of control and 94 % of control.
`O=S1(=O)CCC2=CC(C(F)(F)F)=CC(C(F)(F)F)=CN21`: the T/C runs as follows: under setting [5], 109 % of control; under setting [6], 122 % of control; (dose: 50.0 mg/kg/injection, schedule: Q01DX005 (ip), vehicle: saline with Tween-80) 107 % of control.
Consider `CCOCC[Si]12OCCN(CCO1)CCO2`, for which the T/C was 97 % of control under setting [2], 101 % of control under setting [3] and 90 % of control under setting [4].
For the compound `O=C1C(c2ccccc2)=C(c2ccc(Br)cc2)C2(c3ccc(Br)cc3)CC12c1ccccc1` (stereo not given), the T/C by setting is: (dose: 50.0 mg/kg/injection, schedule: Q01DX005 (ip), vehicle: Klucel + Tween-80) 91 % of control; (dose: 100.0 mg/kg/injection, schedule: Q01DX005 (ip), vehicle: Klucel + Tween-80) 88 % of control.
As to `Cc1c[nH]c2nc(C)n(-c3ccccc3)c(=N)c12`, the T/C (dose: 12.5 mg/kg/injection, schedule: Q01DX005 (ip), vehicle: Klucel (hydroxypropylcellulose) (HPC)) was 100 % of control; the T/C under setting [1] was 93 % of control; the T/C under setting [2] was 101 % of control and 96 % of control.
Take `Nc1ccc2ccc(O)cc2c1`: the T/C by setting is: (dose: 12.5 mg/kg/injection, schedule: Q01DX009 (ip), vehicle: saline with Tween-80) 100 % of control; under setting [7], 100 % of control; under setting [8], 100 % of control; under setting [9], 98 % of control.
As to `Cc1ccc(-n2cc(-c3ccc(Cl)cc3)c3c(N)ncnc32)cc1`, the T/C is 105 % of control (dose: 60.0 mg/kg/injection, schedule: Q01DX005 (ip), vehicle: saline with Tween-80); 104 % of control (dose: 120.0 mg/kg/injection, schedule: Q01DX005 (ip), vehicle: saline with Tween-80); 88 % of control (dose: 240.0 mg/kg/injection, schedule: Q01DX005 (ip), vehicle: saline with Tween-80).
As to `CSCC1(CCO)OCCO1`, the T/C is 100 % of control under setting [7], 94 % of control under setting [8] and 94 % of control under setting [9].
For the compound `CCOC(=O)CCC(CC)NC(=O)c1ccc(N)cc1` (stereo not given), the T/C reads like this: (dose: 12.5 mg/kg/injection, schedule: Q01DX009 (ip), vehicle: distilled water + Tween-80) 93 % of control; (dose: 25.0 mg/kg/injection, schedule: Q01DX009 (ip), vehicle: distilled water + Tween-80) 91 % of control; (dose: 50.0 mg/kg/injection, schedule: Q01DX009 (ip), vehicle: distilled water + Tween-80) 98 % of control; (dose: 100.0 mg/kg/injection, schedule: Q01DX009 (ip), vehicle: distilled water + Tween-80) 102 % of control; (dose: 200.0 mg/kg/injection, schedule: Q01DX009 (ip), vehicle: distilled water + Tween-80) 106 % of control.
